Series [1] deals with T1, FRB*Pax6 (UniProt P26883+P42345, K2095P/T2098L/W2101F).
T1 construct: The minimal FRB domain comprises amino acids 2025-2114 of human mTor; from tissue; host or cells: e13.5 cortical neural cultures (A14) and cultured whole embryos (A15) from Pax6^FRB* knock-in mice; fusion expressed from the targeted endogenous locus
Kind of series: Whole embryo culture, inducible stabilization of FRB*Pax6. Details: species or system mouse. As for the experimental part: Uterine horns were removed from sacrificed mothers to a petri dish containing Hank's Balanced Salt Solution (HBSS), fat was removed and the uterus cut up to isolate embryos. Individual deciduum were carefully removed from the uterus by carefully pulling apart the muscular layers in a fresh petri dish containing HBSS (sometimes supplemented with 2 mg/mL glucose) under a dissecting microscope. Embryos were removed by cutting along the lateral axis of the deciduum with fine forceps taking care not to puncture the embryonic membranes and teasing off the decidual layers overlying the embryo. Embryos were then separated from the remaining decidua at the ectoplacental cone or primitive placenta (depending on the age of the embryo).
Reichert's membrane was grasped without the underlying visceral yolk sac, carefully torn away from the embryo and trimmed back to the placenta without ripping the yolk sac. […] The bottle rotated slowly in a roller bottle chamber at 37° C. Drugs were added directly to the culture media at the commencement of the culture.
Embryos were fixed overnight in 4% paraformaldehyde/PBS then dehydrated through a staged ethanol series. Endogenous peroxidases were inactivated with 5% H2O2 for 4 hours in ethanol and the embryos were rehydrated. […] Embryos were washed in block 6 hours with 1 hour changes and incubated overnight at 4° C. with […] anti-mouse secondary. Embryos were washed with PBS+0.1% Triton X-100 4 times for 1 hour and developed with the DAB peroxidase kit from Vector laboratories.
Embryos were protected with a staged series to 30% sucrose in PBS after fixation in 4% PFA (60 minutes to overnight at 4° C.). Protected embryos were embedded in OCT (VWR) frozen and sectioned on a Leica cryostat to 10 μm. Thin sections were stained according to standard protocols (obtained upon request). Secondary antibodies were purchased from Molecular Probes (Eugene, Oreg.) and primary antibodies to neurofilament, Lim3, Nkx2.2, Pax6, En1, Isl1 were obtained from Dev. Studies. Additional antibodies were from Covance, Zymed or a generous gift of Tadashi Nomura and Noriko Osumi (Sendai, Japan). Immunofluorescence was visualized by confocal microscopy.

The target in series [2] is T1, FRB*Pax6. As to the kind of experiment: Stabilization of FRB*Pax6 in cortical neural cultures (Western blot). The format is cell-based, mouse. From the text:
e13.5 embryos were harvested from a Pax6^FRB*/+ intercross and cortical hemispheres isolated from individuals identified by eye and craniofacial morphology and later confirmed by genotype specific PCR. Pia were removed and neocortex dissected from […] in Hank's balanced salt solution (HBSS). Tissue was minced roughly and placed in centrifuge tubes containing HBSS+20% foetal calf serum. Tissue pieces were allowed to settle and the media was replaced first with HBSS+serum then HBSS alone. The tissue was incubated with 0.1% trypsin+2 mM EDTA 10 minutes at 37° C. then the reaction stopped with HBSS+serum. Cells were triturated to a suspension and plated on 24 well plates coated with matrigel in DMEM (high glucose) supplemented with FCS (5%), N2 (GIBCO) and antibiotics.
Extracts were prepared in RIPA buffer, protein quantified by Bradford Assay (Biorad) and 10 μg of total protein resolved by SDS-PAGE, transferred to PVDF (Millipore) filters and Pax6 or HSP90 identified with specific antibodies (1:1000, Covance and 1:2500 Transduction Laboratories, respectively) incubated 1 hour in TBS+10% nonfat milk. Secondary conjugated to horse radish peroxidase were purchased from Jackson immunochemicals and blots were developed by chemiluminescence (Amersham).

Another series has as its target GSK-3βFRB* (UniProt P26883+P42345, K2095P/T2098L/W2101F). Kind of series: Stabilization of transfected GSK-3β FRB* in MEFs (Western blot). In kind it is cell-based, mouse. Details: The minimal FRB domain comprises amino acids 2025-2114 of human mTor; GSK-3β (fusion partner); expressed in transfected cells; host or cells: wild-type mouse embryonic fibroblasts (MEFs). The following applies: transiently transfected MEFs, drug for 36 h. As to the method: MEFs were transfected using FuGENE-6 (Roche Applied Science). Plasmid DNA (5 μg per 6 cm dish) was mixed in a 1:2 ratio with the FuGENE-6 reagent in Opti-MEM (Invitrogen Life Technologies) before being applied to the cells growing in DMEM/10% FCS and containing C20-MaRap where appropriate. After 12 hours, the cells were split to 6 well plates before further drug treatments to ensure each well contained an equivalently transfected population.
Western Blot analysis was carried out using cell lysates prepared in RIPA buffer (10 mM Tris pH 7.2, 150 mM NaCl, 0.1% SDS, 1% Triton X-100, 1% deoxycholate, 5 mM EDTA, protease inhibitor cocktail (Invitrogen Life Technologies)) and then separated using standard SDS/PAGE before being transferred to PVDF (Millipore) using standard Western blotting procedures. The anti-GSK-3β antibody, used at 1:2500, the anti-HSP-90 antibody, 1:2500, and the anti-FKBP12 antibody, 1:2500, were purchased from BD Transduction Labs. The anti-β-catenin antibody, 1:2000, and anti-HSP-70 antibody, 1:1000 were purchased from Santa Cruz Biotechnology. The anti-BRG1 antibody, 1:1000, was previously prepared in our laboratory (Khavari, P. A. et al. “BRG1 Contains a Conserved Domain of the SWI2/SNF2 Family Necessary for Normal Mitotic Growth and Transcription.” (1993) Published in Nature 366, 170-174). […]

T1 sequence (P42345 2025-2114 K2095P/T2098L/W2101F): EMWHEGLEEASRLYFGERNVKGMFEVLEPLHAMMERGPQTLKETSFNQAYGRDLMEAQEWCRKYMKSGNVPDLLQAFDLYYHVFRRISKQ
T1 sequence (P26883 2-108): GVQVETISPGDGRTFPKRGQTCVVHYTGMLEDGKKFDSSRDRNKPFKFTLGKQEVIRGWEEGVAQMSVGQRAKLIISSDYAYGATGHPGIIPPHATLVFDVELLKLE
Chain of GSK-3βFRB* (P42345 2025-2114 K2095P/T2098L/W2101F): as the sequence (P42345 2025-2114 K2095P/T2098L/W2101F) above
Chain of GSK-3βFRB* (P26883 2-108): as the sequence (P26883 2-108) above

For the substance “C20-(R or S)-methallylrapamycin [C20-MaRap]”, on FRB*Pax6 [1] (48 hours from e9.5 to e11.5), the “Lim3 phenotype of caudal hindbrain” value was “could be rescued” and the “hypoglossal nerve, whole mount neurofilament staining” value is reported as “fasciculated hypoglossal nerve erupts”. Further, the “expression of FRB*Pax6 protein in the spinal cord” value on FRB*Pax6 [1] (Pax6FRB*/FRB* embryos, data not shown) is reported as “rescued”. Besides, the “En1 expressing cells in the V1 domain of spinal cord” value at FRB*Pax6 [1] (e8.5 embryos cultured 48 hours, 2 μM) was “rescued the development of En1 expressing cells”. Further, the “cells expressing Lim3 in spinal cord” value at FRB*Pax6 [1] (e9.5 to e11.5, 2 μM) is “expansion of cells expressing Lim3”. Moreover, the “effect on wild-type embryos” value at FRB*Pax6 [1] (embryo cultures) is “no obvious effect”. For the same substance, on FRB*Pax6 [2] (Pax6FRB*/FRB* cortical neural cultures, increasing quantities, 36 hours), the “FRB*Pax6 protein level” value was “dose-dependent increase in FRB*Pax6 protein”. Besides, the “effect on wild-type Pax6 expression” value on FRB*Pax6 [2] (cortical neural cultures) is given as “no effect”. Moreover, the “kinetics of FRB*Pax6 turnover” value on FRB*Pax6 [2] (data not shown) is “markedly slowed”. Besides, the “GSK-3β FRB* expression” value at GSK-3βFRB* is reported as “restored GSK-3β FRB* expression to normal”.

(Values after US20050214738A1, “Conditional allele system” (priority 2003, published 2005).)
